Data: patent publication US20250177292A1, “METHOD FOR TREATMENT OF PARKINSON'S DISEASE” (NeuroDerm, Ltd., priority 2013, published 2025)

Assays:
pigs = conditions: pig, in vivo, sc
Description: The effect of carbidopa on levodopa local toxicity was investigated in pigs: solutions containing 6% LD and 0, 0.5 or 1% CD with the respective amount of arginine (13.5, 14.2 or 14.8%, respectively) were continuously administered SC to pigs at 0.16 ml/h×24 h. Each formulation was administered to 2 pigs. Skin samples were collected 8±1 days thereafter.

[1] = Stability of carbidopa formulations with and without levodopa (Table H); format: physicochemical; conditions: in the presence of LD
Text: The effect of levodopa on the stability of carbidopa was investigated. Table H indicates results.
It appears that LD may protect CD from degradation.

pig skin = experiment: Continuous administration into full-thickness pig skin ex vivo (FIG. 1B); conditions: 7% LD/arginine solution with 2% CD, 0.08 ml/h×18 h, 37° C.
Description: (§1) FIGS. 1A-1B show the effect of carbidopa on the stability of levodopa in vitro and ex vivo: 1A. 6% by weight levodopa and arginine solution with various concentrations (2, 1.5, 1, 0.5%) of carbidopa or no carbidopa were tested for physical stability in vitro. […] 1B. 7% by weight levodopa and arginine solution, with or without 2% carbidopa by weight, continuously administered in to the subcutaneous tissue of a 5×5 cm fresh, full-thickness pig skin.
A 7% LD/arginine solution, with or without 2% CD, was continuously administered at 0.08 ml/h×18 h, 37° C. into a 5×5 cm fresh, full-thickness pig skin.

[2] = Effect of carbidopa on stability of levodopa formulations in vitro (Tables F, G, FIG. 1A); format: physicochemical
Description: as §1, with “6%” for “FIGS. 1A-1B show the effect of carbidopa on the stability of levodopa in vitro and ex vivo: 1A. 6%”
The effect of carbidopa on levodopa formulations was investigated. Levodopa (LD) formulations were prepared with 0, 0.5, 1, 1.5 and 2% by weight carbidopa (CD) and a constant concentration of arginine.
In an additional experiment, LD formulations were prepared with 0, 0.5, 1 and 2% CD and respective concentrations of arginine.

[3] = cited from earlier work
[4] = cited from earlier work; remark: listed apart in the source
[5] = Plasma LD, CD and 3-OMD during continuous SC LD/CD with oral entacapone in human volunteers (FIG. 6); format: in vivo, human
Description: A single center, double-blind, randomized, placebo-controlled, study was conducted with six healthy Caucasian males volunteers, aged 18-40 years old. LD (6%)/CD (1.5%) was administered at a rate of […], corresponding to 360 mg of LD and 90 mg of CD per 24 hours. […] Plasma LD, CD and 3-OMD concentrations were quantified at pre-determined time points.

[6] = Titration with acetic or lactic acid: pH and physical stability (Table D); format: physicochemical
Description: Formulations containing 6/1.5% and 5.4/1.5% LD/CD and varying L-Arg concentrations were titrated with acetic acid (100%) or lactic acid (85%), to study the effect of pH and L-Arg concentration on the physical stability of the solutions (Table D).

SMILES: C[C@@](Cc1ccc(O)c(O)c1)(NN)C(=O)O [CD, carbidopa]
- Local levodopa dependent subcutaneous toxicity (pigs): reduces the severity and extent
- Sensitivity of CD to oxidation and degradation [1]: more stable in the presence of LD
- Oxidation of LD ex vivo (black by-products) (pig skin): lack of black by-products formation
- Oxidation of LD ex vivo (black by-products) (pig skin; listed as carbidopa): inhibition of oxidation
- Effect on the chemical stability of levodopa ([2]; Table F): does not have a significant effect
- Dark yellow color formation ([2]; in the absence of air (N2 in the head space), 0.5% carbidopa): sufficient to inhibit this color formation
- Dark yellow color formation ([2]; in the presence of air, 6% levodopa and arginine solution with 0.5-2% carbidopa): prevented dark yellow color formation

SMILES: CCN(CC)C(=O)/C(C#N)=C/c1cc(O)c(O)c([N+](=O)[O-])c1 [E, entacapone]
- Increase in the level of levodopa ([3]; according to Nyholm et al.): up to 33%
- Reduction of the dose of levodopa and carbidopa maintaining the desired blood level of levodopa ([3]; oral 200 mg entacapone, intraintestinal infusion of levodopa and carbidopa): 20%
- Highest increase in the total amount of levodopa ([4]; after 400 mg dose of entacapone, oral levodopa and carbidopa): about 33%
- Total amount of carbidopa in blood ([4]; high doses of entacapone (400 mg and 800 mg)): decrease the total amount of carbidopa in blood
- Steady state of plasma concentrations of LD ([5]; 24 hours after LD/CD infusion initiation, 9 hours after entacapone dosing initiation): did not reach a steady state
- Plasma concentrations of 3-OMD ([5]; human, in vivo): significantly reduced
- Blood level of levodopa ([5]; male, human, in vivo): about 620 ng/ml
- Increase of the blood level of levodopa ([5]; male, human, in vivo): more than 40%

SMILES: O=C1O[C@H]([C@@H](O)CO)C(O)=C1O [ascorbic acid]
- Reduction of the pH as compared to Na-ascorbate [6]: 0.1-0.15 units
